Measurements from PMC10134273 (Cancer Medicine, 2023).
Like-named read-outs stand apart in the source and are kept apart here.

Experiments:
[1] = Method: Secondary endpoints included PK parameters (e.g., maximum observed concentration [C max] and area under the concentration‐time curve [AUC]). Secondary endpoints included objective response rate (ORR), disease control rate (DCR), and duration of response (DOR) as assessed by investigator per RECIST v1.1. Tumor responses were assessed according to RECIST v1.1; computerized tomography scanning or magnetic resonance imaging was performed every 6 weeks in the first 48 weeks, and every 12 weeks thereafter. Secondary endpoints also included safety and tolerability (adverse events [AEs] as defined by the National Cancer Institute‐Common Terminology Criteria for Adverse Events CTCAE v5.0) and exploratory biomarkers (total bile acids, 7‐α‐hydroxy‐4‐cholesten‐3‐one [C4] and circulating FGF19). Safety follow‐up visit was performed within 30 days (±5 days) and 90 days (±7 days) after the last dose of the study treatment.
All patients who received at least one dose of the study treatment in the Phase 1 part of the study were included in the safety and efficacy analyses. Dose escalation and MTD assessment were primarily based on DLTs which occurred within the 28‐day observation period. Descriptive statistics were used for demographics, safety, and efficacy data. The number of patients who experienced DLTs (within and outside of the 28‐day DLT assessment period) was tabulated for each dose level. The sample size of patients required for dose escalation were determined based on the ‘3+3’ design and DLTs observed as the trial progressed.

[2] = system: all other kinases (including FGFR1, FGFR2, and FGFR3); settings: versus FGFR4; cited from earlier work
[3] = DLT observation / MTD and RP2D determination (3+3 dose escalation); format: in vivo
Source text: After a screening period of up to 28 days, eligible patients received treatment according to a standard “3+3” dose escalation design. […] Treatment continued until unacceptable toxicity, progressive disease, and/or at the discretion of the Investigator or patient's withdrawal of consent.

[4] = system: triple positive HCC tumors; settings: cited from earlier work
advanced solid tumors = test: Tumor response per RECIST v1.1; format: in vivo, human
FGFR4 = system: FGFR4; set-up: method as in PMID 32930584; settings: kinase biochemical assays; read-out: half-maximal inhibitory concentration (IC50); cited from earlier work
[5] = system: HCC or solid tumors with positive FGFR4 and KLB expression; settings: cited from earlier work
[6] = 40 mg BID (N=3) + pembrolizumab
[7] = 60 mg BID (N=3) + pembrolizumab
[8] = 80 mg BID (N=6) + pembrolizumab
[9] = 100 mg BID (N=7) + pembrolizumab
[10] = 80 mg BID group + pembrolizumab
[11] = CFGF401X2101 trial, Grade ≥3 TEAE

SMILES: COCCNc1cc(NC(=O)N2CCCc3cc(CN4CCN(C)CC4=O)c(C=O)nc32)ncc1C#N [EVER4010001, roblitinib]
- Grade 5 TEAEs related to EVER4010001 and/or pembrolizumab [1, 6]: 0 n (%)
- SAEs: Death [1, 6]: 0 n (%)
- Grade 5 TEAEs related to EVER4010001 and/or pembrolizumab [1, 7]: 0 n (%)
- SAEs: Death [1, 7]: 1 (33.3) n (%)
- Grade 5 TEAEs related to EVER4010001 and/or pembrolizumab [1, 8]: 0 n (%)
- SAEs: Death [1, 8]: 0 n (%)
- Grade 5 TEAEs related to EVER4010001 and/or pembrolizumab [1, 9]: 0 n (%)
- SAEs: Death [1, 9]: 0 n (%)
- Grade 5 TEAEs related to EVER4010001 and/or pembrolizumab ([1]; Total (N=19)): 0 n (%)
- SAEs: Death ([1]; Total (N=19)): 1 (5.3) n (%)
- Any TEAE: Alanine aminotransferase increased ([1]; human, in vivo): 9 (47.4) n (%)
- Any TEAE: Anemia ([1]; human, in vivo): 9 (47.4) n (%)
- Any TEAE: Aspartate aminotransferase increased ([1]; human, in vivo): 11 (57.9) n (%)
- Any TEAE: Gastrointestinal disorders ([1]; human, in vivo): 19 n (%)
- EVER4010001-related TEAEs ([1]; human, in vivo): 19 (100) n (%)
- EVER4010001-related TEAEs: Increased Blood Alkaline Phosphatase ([1]; human, in vivo): 5 (26.3) n (%)
- SAEs: Device dislocation ([1]; human, in vivo): 1 (5.3) n (%)
- SAEs: Product issues ([1]; human, in vivo): 1 (5.3) n (%)
- TEAEs leading to discontinuation: Aspartate aminotransferase increased ([1]; human, in vivo): 2 [10.5%] n (%)
- TEAEs leading to discontinuation: Blood bilirubin increased ([1]; human, in vivo): 1 [5.3%] n (%)
- TEAEs resulting in temporary interruption of EVER4010001 ([1]; human, in vivo): 4 [21.0%] n (%)
- Any TEAE: Anemia ([1]; human, in vivo, 93.4 days): 0 n (%)
- Any TEAE: Diarrhea ([1]; human, in vivo, 93.4 days): 1 (5.3) n (%)
- SAEs: Gastrointestinal disorders ([1]; human, in vivo, 93.4 days): 1 (5.3) n (%)
- SAEs: Pancreatitis ([1]; human, in vivo, 93.4 days): 1 (5.3) n (%)
- TEAEs leading to discontinuation: Aspartate aminotransferase increased ([1]; human, in vivo, 93.4 days): 2 (10.5) n (%)
- TEAEs leading to discontinuation: Blood bilirubin increased ([1]; human, in vivo, 93.4 days): 1 (5.3) n (%)
- TEAEs leading to discontinuation: Investigations ([1]; human, in vivo, 93.4 days): 3 (15.8) n (%)
- TEAEs leading to discontinuation: Vascular disorders ([1]; human, in vivo, 93.4 days): 1 (5.3) n (%)
- TEAEs resulting in temporary interruption of EVER4010001 ([1]; human, in vivo, 93.4 days): 4 (21.0) n (%)
- DLTs during whole study: Alanine aminotransferase increased ([3]; human, in vivo): 1 (5.9) n (%)
- DLTs during whole study: Aspartate aminotransferase increased ([3]; human, in vivo): 2 (11.8) n (%)
- Total DLTs during whole study ([3]; human, in vivo): 2 (11.8) n (%)
- DLTs within 28 days: Alanine aminotransferase increased ([3]; human, in vivo, 28 days): 1 (5.9) n (%)
- DLTs within 28 days: Aspartate aminotransferase increased ([3]; human, in vivo, 28 days): 2 (11.8) n (%)
- Total DLTs within 28 days ([3]; human, in vivo, 28 days): 2 (11.8) n (%)
- maximum tolerated dose (MTD) ([3]; in combination with pembrolizumab 200 mg Q3W): 80 mg BID
- antitumor effect in preclinical models [4]: induced regression/stasis
- Best overall response: Complete response (advanced solid tumors; [6]): 0 n (%)
- Best overall response: Not evaluable (advanced solid tumors; [6]): 0 n (%)
- Best overall response: Partial response (advanced solid tumors; [6]): 0 n (%)
- Best overall response: Progressive disease (advanced solid tumors; [6]): 1 (33.3) n (%)
- Best overall response: Stable disease (advanced solid tumors; [6]): 2 (66.7) n (%)
- Disease control rate (CR+PR+SD) (advanced solid tumors; [6]): 2 (66.7) n (%)
- Objective response (CR+PR) (advanced solid tumors; [6]): 0 n (%)
- DCR (advanced solid tumors; 40 mg BID group + pembrolizumab): 66.7%
- Best overall response: Complete response (advanced solid tumors; [7]): 0 n (%)
- Best overall response: Not evaluable (advanced solid tumors; [7]): 0 n (%)
- Best overall response: Partial response (advanced solid tumors; [7]): 0 n (%)
- Best overall response: Progressive disease (advanced solid tumors; [7]): 2 (66.7) n (%)
- Best overall response: Stable disease (advanced solid tumors; [7]): 1 (33.3) n (%)
- Disease control rate (CR+PR+SD) (advanced solid tumors; [7]): 1 (33.3) n (%)
- Objective response (CR+PR) (advanced solid tumors; [7]): 0 n (%)
- DCR (advanced solid tumors; 60 mg BID group + pembrolizumab): 33.3%
- Best overall response: Complete response (advanced solid tumors; [8]): 0 n (%)
- Best overall response: Not evaluable (advanced solid tumors; [8]): 1 (16.7) n (%)
- Best overall response: Partial response (advanced solid tumors; [8]): 1 (16.7) n (%)
- Best overall response: Progressive disease (advanced solid tumors; [8]): 2 (33.3) n (%)
- Best overall response: Stable disease (advanced solid tumors; [8]): 2 (33.3) n (%)
- Disease control rate (CR+PR+SD) (advanced solid tumors; [8]): 3 (50.0) n (%)
- Objective response (CR+PR) (advanced solid tumors; [8]): 1 (16.7) n (%)
- DCR (advanced solid tumors; [10]): 50%
- ORR (advanced solid tumors; [10]): 16.7%
- Best overall response: Complete response (advanced solid tumors; [9]): 0 n (%)
- Best overall response: Not evaluable (advanced solid tumors; [9]): 1 (14.3) n (%)
- Best overall response: Partial response (advanced solid tumors; [9]): 0 n (%)
- Best overall response: Stable disease (advanced solid tumors; [9]): 0 n (%)
- Disease control rate (CR+PR+SD) (advanced solid tumors; [9]): 0 n (%)
- Objective response (CR+PR) (advanced solid tumors; [9]): 0 n (%)
- DCR (advanced solid tumors; 100 mg BID group + pembrolizumab): 0%
- ORR (advanced solid tumors; across all doses, + pembrolizumab): 5.3%
- increased ALT [5, 11]: 15.0%
- increased AST [5, 11]: 18.8%
- increased ALT ([5]; CFGF401X2101 trial, any grade): 43.8%
- ORR ([5]; CFGF401X2101 trial): 8%
- diarrhea suspected to be related to the study drug ([5]; CFGF401X2101 trial): 69%
- recommended Phase 2 dose (RP2D) ([5]; QD doses 50-150 mg, fasted or unfasted patients): 120 mg QD
- geometric mean Cmax (geometric coefficient of variation %) ([5]; RP2D 120 mg FGF401 QD, CFGF401X2101 trial): 1120 ng/mL
- recommended Phase 2 dose (RP2D) ([5]; in combination with spartalizumab 300 mg Q3W): 120 mg QD
